Reference: patent publication US7504421B2, “Substituted 2-thio-3,5-dicyano-4-aryl-6-aminopyridines and their use” (priority 1999, dated 2009)
Like-named read-outs stand apart in the source and are kept apart here.

How the values were obtained:
[1] = tested on: Langendorff heart of the rat (coronary arteries); experiment: Langendorff heart of the rat: coronary perfusion pressure, left ventricular pressure, heart rate; conditions: isolated rat heart
Procedure: After opening the thoracic cage of anesthetized rats, the heart is removed quickly and introduced into a conventional Langendorff apparatus. The coronary arteries are perfused at a constant volume (10 ml/min), and the resulting perfusion pressure is recorded via an appropriate pressure sensor. In this arrangement, a decrease of the perfusion pressure corresponds to a relaxation of the coronary arteries. At the same time, the pressure which is developed by the heart during each contraction is measured via a balloon introduced into the left ventricle and a further pressure sensor. The frequency of the isolated beating heart is calculated from the number of contractions per time unit.
In this test arrangement, the following values were obtained for the coronary perfusion pressure (the stated percentage refers to the reduction of the coronary perfusion pressure in percent at the respective concentration):
At the stated concentrations, the substances tested had no effect on the pressure developed during the contraction in the left ventricle and no effect on the heart rate.

adenosine A2b receptor = target: T1, adenosine A2b receptor (Homo sapiens, UniProt P29275); experiment: Intracellular cAMP (cAMP-RIA) in CHO cells transfected with cDNA for the A2b receptor, agonist mode; type: cell-based; conditions: for activity at 10 µM / activity at 1 µM / activity at 0.1 µM / activity at 0.001 µM / activity at 0.01 µM: read-out: Concentration of intracellular cAMP in percent; for agonistic effect on cells which express the adenosine receptor A2b (in words): summary of cAMP data
T1 sequence (P29275 1-332): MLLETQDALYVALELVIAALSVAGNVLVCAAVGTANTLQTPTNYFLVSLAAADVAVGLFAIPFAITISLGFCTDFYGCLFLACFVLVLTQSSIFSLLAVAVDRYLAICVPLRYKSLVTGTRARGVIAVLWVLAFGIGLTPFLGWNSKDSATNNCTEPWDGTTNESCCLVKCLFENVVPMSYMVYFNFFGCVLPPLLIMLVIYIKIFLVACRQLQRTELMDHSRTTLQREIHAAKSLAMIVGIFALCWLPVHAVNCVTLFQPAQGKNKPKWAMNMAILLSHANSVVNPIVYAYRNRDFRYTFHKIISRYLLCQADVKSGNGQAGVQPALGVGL
Procedure: (§1) Cells of the permanent line CHO (Chinese Hamster Ovary) were stably transfected with cDNA for the adenosine receptor subtypes A1, A2a, A2b and A3. Binding of the substances to the A2a or A2b receptor subtypes was determined by measuring the intracellular cAMP concentration in these cells using a conventional radioimmunological assay (cAMP-RIA, IBL GmbH, Hamburg, Germany).
(§2) In the case of the action of the substances as agonists, binding of the substances is expressed in an increase of the intracellular cAMP concentration.
(§3) In the experiments below, the intracellular cAMP concentration in CHO cells which had been transfected with cDNA for the A2b receptor was determined. What is stated is the cAMP concentration in percent in all cells in a well of a microtiter plate, based on the control value obtained without any substances acting on the cells: […]

adenosine A2a receptor = adenosine A2a receptor (Homo sapiens, UniProt P29274); experiment: Intracellular cAMP (cAMP-RIA) in CHO cells transfected with cDNA for the A2a receptor, agonist mode; type: cell-based; conditions: for Concentration of intracellular cAMP in percent: CHO cells with A2a receptor, based on control without substance; for effect on cells with the A2a receptor (in words): summary of cAMP data
Procedure: as §1, §2
as §3, with “A2a” for “A2b”

adenosine A1 receptor = target: T2, adenosine A1 receptor (Homo sapiens, UniProt P30542); experiment: Intracellular cAMP in CHO cells transfected with cDNA for the A1 receptor after prestimulation with forskolin; type: cell-based; conditions: for remaining activity at 10 µM / remaining activity at 1 µM / remaining activity at 0.1 µM: CHO cells with A1 receptor, based on control prestimulated with 1 μM forskolin for 15 min (18% without forskolin), read-out: Concentration of intracellular cAMP in percent; for remaining activity at 10 µM: 10^-5 M; for remaining activity at 1 µM: 10^-6 M; for remaining activity at 0.1 µM: 10^-7 M; for receptor selectivity: adenosine A1 receptor: conclusion from cAMP data on A1, A2a, A2b cells; for agonistic effect on cells with the A1 receptor (in words): summary of cAMP data
T2 sequence (P30542 1-326): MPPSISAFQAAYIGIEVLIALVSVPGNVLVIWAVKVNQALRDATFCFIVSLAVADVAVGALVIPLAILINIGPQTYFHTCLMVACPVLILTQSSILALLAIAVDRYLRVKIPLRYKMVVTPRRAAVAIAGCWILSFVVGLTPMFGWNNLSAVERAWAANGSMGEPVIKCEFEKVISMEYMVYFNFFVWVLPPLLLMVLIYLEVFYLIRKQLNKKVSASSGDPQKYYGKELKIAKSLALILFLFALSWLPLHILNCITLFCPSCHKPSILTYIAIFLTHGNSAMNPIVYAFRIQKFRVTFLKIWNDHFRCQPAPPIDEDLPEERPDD
Procedure: as §1
The adenosine receptors A1 and A3 are coupled to a Gi protein, i.e. stimulation of these receptors results in an inhibition of adenylate cyclase and thus a reduction of the intracellular cAMP level. To identify A1/A3 receptor agonists, the adenylate cyclase is stimulated using forskolin. However, additional stimulation of the A1/A3 receptors inhibits adenylate cyclase, so that it is possible to detect A1/A3 receptor agonists by a comparatively low concentration of cAMP in the cell.
In the following experiments, the intracellular cAMP concentration in CHO cells transfected with the cDNA for the A1 receptor was determined.

[2] = CHO cells with A2b receptor, 10^-5 M, based on control without substance
[3] = CHO cells with A2b receptor, 10^-6 M, based on control without substance
[4] = CHO cells with A2b receptor, 10^-7 M, based on control without substance

Chain of adenosine A2a receptor (P29274 whole entry): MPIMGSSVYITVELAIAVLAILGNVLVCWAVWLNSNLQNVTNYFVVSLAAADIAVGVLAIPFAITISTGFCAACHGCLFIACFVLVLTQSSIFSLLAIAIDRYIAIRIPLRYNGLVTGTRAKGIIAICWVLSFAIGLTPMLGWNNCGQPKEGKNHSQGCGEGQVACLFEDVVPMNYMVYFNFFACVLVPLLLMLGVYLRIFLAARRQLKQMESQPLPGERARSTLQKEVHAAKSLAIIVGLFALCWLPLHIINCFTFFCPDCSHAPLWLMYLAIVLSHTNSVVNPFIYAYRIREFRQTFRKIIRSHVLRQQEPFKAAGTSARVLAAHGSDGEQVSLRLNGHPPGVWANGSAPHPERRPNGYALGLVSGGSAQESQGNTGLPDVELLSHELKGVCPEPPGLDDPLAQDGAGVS

Row | SMILES | Reduction of the coronary perfusion pressure in percent ([1]; concentration 10^-6 g/ml) | Reduction of the coronary perfusion pressure in percent ([1]; concentration 10^-7 g/ml) | activity at 10 µM (adenosine A2b receptor; [2]) [%] | activity at 1 µM (adenosine A2b receptor; [3]) [%] | activity at 0.1 µM (adenosine A2b receptor; [4]) [%] | agonistic effect on cells which express the adenosine receptor A2b (in words) (adenosine A2b receptor) | Concentration of intracellular cAMP in percent (adenosine A2a receptor; 10^-5 M) [%] | Concentration of intracellular cAMP in percent (adenosine A2a receptor; 10^-6 M) [%] | Concentration of intracellular cAMP in percent (adenosine A2a receptor; 10^-7 M) [%] | effect on cells with the A2a receptor (in words) (adenosine A2a receptor) | remaining activity at 10 µM (adenosine A1 receptor) [%] | remaining activity at 1 µM (adenosine A1 receptor) [%] | remaining activity at 0.1 µM (adenosine A1 receptor) [%] | agonistic effect on cells with the A1 receptor (in words) (adenosine A1 receptor) | further results
1 | N#Cc1c(N)nc(SCCO)c(C#N)c1-c1cccc(O)c1 [A 43] | about 68% | about 42% | 784 | 674 | 347 | considerably weaker effect | 317 | 200 | 117 | virtually no effect | 22 | 24 | 18 | clear agonistic effect | receptor selectivity: adenosine A1 receptor (adenosine A1 receptor): selective adenosine A1 receptor agonists
2 | N#Cc1c(N)nc(SCc2ncc[nH]2)c(C#N)c1-c1ccc(O)cc1 [A 379] | about 63% | about 64% |  |  |  | clear agonistic effect | 291 | 235 | 218 | virtually no effect | 35 | 34 | 34 | comparably weaker effect | activity at 0.001 µM (adenosine A2b receptor; CHO): 870%; activity at 0.01 µM (adenosine A2b receptor; CHO): 846%; activity at 0.1 µM (adenosine A2b receptor; CHO): 861%; activity at 1 µM (adenosine A2b receptor; CHO): 936%; receptor selectivity: adenosine A2b receptor (adenosine A2b receptor; conclusion from cAMP data on A1, A2a, A2b cells): selective adenosine A2b receptor agonist; Concentration of intracellular cAMP in percent (adenosine A2a receptor; 10^-8 M): 160%; Concentration of intracellular cAMP in percent (adenosine A2a receptor; 10^-9 M): 93%
3 | Cc1ccc(-c2c(C#N)c(N)nc(SCc3ccccc3)c2C#N)cc1 [A 189] | about 37% | no effect observed |  |  |  |  |  |  |  |  |  |  |  |  | 
4 | N#Cc1c(N)nc(SCC(N)=O)c(C#N)c1-c1ccc(O)cc1 [A 1] |  |  | 900 | 947 | 837 | clear agonistic effect | 208 | 117 | 92 | virtually no effect |  |  |  |  | 
5 | Cc1ccc(-c2c(C#N)c(N)nc(SCC(O)CO)c2C#N)cc1 (stereo not drawn) [A 198] | about 26% | no effect observed |  |  |  |  |  |  |  |  |  |  |  |  | 
6 | N#Cc1c(N)nc(SCCO)c(C#N)c1-c1ccc(O)cc1 [Example 21, 2-Amino-6-[(2-hydroxyethyl)sulfanyl]-4-(4-hydroxyphenyl)-3,5-pyridinedicarbonitrile] | about 75% | about 40% |  |  |  |  |  | 117 | 143 |  |  |  |  |  | activity at 0.1 µM (adenosine A2b receptor; CHO): 253%; activity at 1 µM (adenosine A2b receptor; CHO): 432%; activity at 10 µM (adenosine A2b receptor; CHO): 384%
7 | N#Cc1c(N)nc(SCCO)c(C#N)c1-c1ccccc1 [A 104] |  |  | 571 | 586 | 438 | considerably weaker effect | 212 | 146 | 107 | virtually no effect | 21 | 23 | 28 | clear agonistic effect | activity at 0.01 µM (adenosine A2b receptor; CHO cells with A2b receptor, 10^-8 M, based on control without substance): 178%; activity at 0.001 µM (adenosine A2b receptor; CHO cells with A2b receptor, 10^-9 M, based on control without substance): 100%; Concentration of intracellular cAMP in percent (adenosine A2a receptor; 10^-8 M): 107%; Concentration of intracellular cAMP in percent (adenosine A2a receptor; 10^-9 M): 104%; receptor selectivity: adenosine A1 receptor (adenosine A1 receptor): selective adenosine A1 receptor agonists
8 | CC(O)CSc1nc(N)c(C#N)c(-c2cccc(O)c2)c1C#N (stereo not drawn) [A 46] |  |  | 753 | 716 | 463 |  | 183 | 108 | 67 |  |  |  |  |  | 
